From US9242996B2 (Novartis AG, priority 2013, dated 2016)

These compounds were tested against T1, activated ERK2 (Homo sapiens (Human), UniProt P28482) (assay: Activated ERK2 kinase assay, ERK2 New conditions (AlphaScreen, ERKtide phosphorylation)). Settings: 0.25 nM ERK2, 200 nM ERKtide peptide, 35 μM ATP, 30 min preincubation.
T1 sequence (P28482 whole entry): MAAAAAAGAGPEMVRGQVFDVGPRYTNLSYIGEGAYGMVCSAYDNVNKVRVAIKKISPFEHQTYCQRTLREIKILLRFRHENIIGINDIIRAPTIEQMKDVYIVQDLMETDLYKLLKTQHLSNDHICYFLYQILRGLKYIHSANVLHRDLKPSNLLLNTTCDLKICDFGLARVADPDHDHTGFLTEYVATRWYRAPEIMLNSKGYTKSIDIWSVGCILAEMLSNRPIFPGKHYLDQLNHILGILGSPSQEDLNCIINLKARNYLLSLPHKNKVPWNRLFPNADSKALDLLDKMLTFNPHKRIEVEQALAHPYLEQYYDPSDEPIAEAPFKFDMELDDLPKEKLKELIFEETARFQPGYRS
Assay type: biochemical
Method: The assay is carried out in 50 mM HEPES [pH 7.5], 5 mM MgCl2, 1 mM DTT, 0.01% Tween-20, 0.05% BSA using 0.25 nM ERK2, 200 nM ERKtide peptide and 35 μM ATP (all concentrations are final in the reaction) in a total volume of 10.25 μL. […] Compound dilution series are prepared in 100% DMSO. ERK2 is preincubated with compounds for 30 minutes at ambient temperature. Reaction is initiated by addition of a substrate cocktail of ERKtide peptide and ATP and is allowed to proceed for 2-3 hours at ambient temperature. Reaction is terminated by addition of 10 μL of a 2× stop buffer consisting of 100 mM Tris-Cl [pH 7.5], 25 mM EDTA, 0.01% Tween 20, 10 μg/mL of AlphaScreen Protein A Acceptor Beads, 10 μg/mL of Streptavidin Donor Beads (PerkinElmer, Waltham, Mass.), and 1.4 μg/mL phospho-EGF Receptor (Thr669) antibody (Cat #3056, Cell Signaling Technology, Danvers, Mass.). Terminated reactions are read, after overnight incubation in the dark, on an EnVision Multilabel Plate Reader (PerkinElmer, Waltham, Mass.), with excitation and emission wavelengths set to 680 nm and 570 nm, respectively. IC50 values are determined using a four-parameter fit.
For `C[C@@H](NC(=O)c1ccc(-c2cc(C3CCC(=O)NC3)cnc2N)cc1F)c1cccc(Cl)c1` (mixture of isomers) [Example 119, 4-(2-amino-5-(6-oxopiperidin-3-yl)pyridin-3-yl)-N-((R)-1-(3-chlorophenyl)ethyl)-2-fluorobenzamide], the IC50 was 0.549 nM. `COC1CCCC(c2cnc(N)c(-c3ccc(C(=O)N[C@H](CO)c4cccc(Cl)c4)c(F)c3)n2)C1` (mixture of isomers) [Example 123, cis-4-(3-amino-6-(3-methoxycyclohexyl)pyrazin-2-yl)-N-((S)-1-(3-chlorophenyl)-2-hydroxyethyl)-2-fluorobenzamide] was tested, and the IC50 was 0.593 nM. `Nc1ncc(C2CCS(=O)(=O)C2)cc1-c1ccc(C(=O)NCc2ccccc2)c(F)c1` (racemic) [Example 4, 4-(2-amino-5-(1,1-dioxidotetrahydrothiophen-3-yl)pyridin-3-yl)-N-benzyl-2-fluorobenzamide] gave an IC50 of 315 nM. With `Nc1ncc([C@H]2CCC[C@@H](O)C2)nc1-c1ccc(C(=O)NCc2ccccc2)c(F)c1` (racemic) [Example 12, (+/−)-4-(3-amino-6-((1S,3R)-3-hydroxycyclohexyl)pyrazin-2-yl)-N-benzyl-2-fluorobenzamide] the IC50 was 39.6 nM. With `CS(=O)(=O)[C@@H]1CCC[C@@H](c2cnc(N)c(-c3ccc(C(=O)NCc4ccccc4)c(F)c3)n2)C1` (racemic) [Example 13, (+/−)-4-(3-amino-6-((1R,3R)-3-(methylsulfonyl)cyclohexyl)pyrazin-2-yl)-N-benzyl-2-fluorobenzamide] the IC50 was 361 nM. `Nc1ncc(C2CCOCC2)nc1-c1ccc(C(=O)NC(c2ccccc2)C(F)F)c(F)c1` (racemic) [Example 50, (+/−)-4-(3-amino-6-(tetrahydro-2H-pyran-4-yl)pyrazin-2-yl)-N-(2,2-difluoro-1-phenylethyl)-2-fluorobenzamide] gave an IC50 of 8.39 nM. In the case of `Nc1ncc(C2CCOCC2)nc1-c1ccc(C(=O)NC(c2ccccc2)C(F)(F)F)c(F)c1` (racemic) [Example 51, (+/−)-4-(3-amino-6-(tetrahydro-2H-pyran-4-yl)pyrazin-2-yl)-2-fluoro-N-(2,2,2-trifluoro-1-phenylethyl)benzamide], the IC50 is reported as 27 nM. With `CC(CO)c1cnc(N)c(-c2ccc(C(=O)NCc3ccccc3)c(F)c2)n1` (racemic) [Example 115, (+/−)-4-(3-amino-6-(1-hydroxypropan-2-yl)pyrazin-2-yl)-N-benzyl-2-fluorobenzamide] the IC50 was 274 nM. Compound `Nc1ncc(C2CCC(=O)NC2)nc1-c1ccc(C(=O)NCc2ccccc2)c(F)c1` (racemic) [Example 117, (+/−)-4-(3-amino-6-(6-oxopiperidin-3-yl)pyrazin-2-yl)-N-benzyl-2-fluorobenzamide] has an IC50 of 4.79 nM. `Nc1ncc(C2CCC(=O)NC2)cc1-c1ccc(C(=O)NCc2ccccc2)c(F)c1` (racemic) [Example 118, (+/−)-4-(2-amino-5-(6-oxopiperidin-3-yl)pyridin-3-yl)-N-benzyl-2-fluorobenzamide] gave an IC50 of 17.6 nM.

These compounds were tested against T1, activated ERK2 (assay: Activated ERK2 (20 pM) Kinase Assay (AlphaScreen, ERKtide phosphorylation)). Settings: 0.02 nM ERK2, 400 nM ERKtide peptide, 35 μM ATP, 30 min preincubation.
Assay type: biochemical
Procedure, shortened: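 Activated human ERK2 (0.02 nM) preincubated 30 min with compounds, then 400 nM ERKtide and 35 μM ATP added for 4 h at ambient temperature in HEPES pH 7.5, MgCl2, DTT, Tween-20, BSA. EDTA stop; phospho-peptide read by AlphaScreen after overnight dark incubation; four-parameter IC50.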
In the case of `Nc1ncc([C@H]2CC[C@@H](O)[C@@H](O)C2)nc1-c1ccc(C(=O)N[C@H](CO)c2cc(F)cc(Br)c2)c(F)c1` [Example 466, 4-(3-amino-6-((1S,3S,4R)-3,4-dihydroxy-cyclohexyl)pyrazin-2-yl)-2-fluoro-N-((S)-1-(3-fluoro-5-bromophenyl)-2-hydroxyethyl) benzamide], the IC50 is reported as 0.218 nM. Compound `Nc1ncc([C@H]2CC[C@H](O)[C@@H](O)C2)nc1-c1ccc(C(=O)N[C@H](CO)c2cc(F)cc(Br)c2)c(F)c1` [Example 467, 4-(3-amino-6-((1S,3S,4S)-3,4-dihydroxy-cyclohexyl)pyrazin-2-yl)-2-fluoro-N-((S)-1-(3-fluoro-5-bromophenyl)-2-hydroxyethyl) benzamide] has an IC50 of 0.0446 nM. In the case of `Nc1ncc([C@@H]2CC[C@H](O)[C@H](O)C2)nc1-c1ccc(C(=O)N[C@H](CO)c2cc(F)cc(Br)c2)c(F)c1` [Example 468, 4-(3-amino-6-((1R,3R,4S)-3,4-dihydroxy-cyclohexyl)pyrazin-2-yl)-2-fluoro-N-((S)-1-(3-fluoro-5-bromophenyl)-2-hydroxyethyl) benzamide], the IC50 is reported as 0.251 nM. For `CO[C@H]1CC[C@H](c2cnc(N)c(-c3ccc(C(=O)N[C@H](CO)c4cc(F)cc(Br)c4)c(F)c3)n2)C[C@@H]1O` [Example 469, 4-(3-amino-6-((1S,3S,4S)-3-hydroxy,4-methoxylcyclo-hexyl)pyrazin-2-yl)-2-fluoro-N-((S)-1-(3-fluoro-5-bromophenyl)-2-hydroxyethyl) benzamide], the IC50 was 0.136 nM. `Nc1ncc([C@H]2CCC(F)(F)[C@H](O)C2)nc1-c1ccc(C(=O)N[C@H](CO)c2cccc(Cl)c2)c(F)c1` [Example 470, 4-(3-amino-6-((1S,3R)-4,4-difluoro-3-hydroxycyclo-hexyl)pyrazin-2-yl)-N-((S)-1-(3-chlorophenyl)-2-hydroxyethyl)-2-fluorobenzamide] showed an IC50 of 0.221 nM. `Nc1ncc([C@@H]2CCC(F)(F)[C@H](O)C2)nc1-c1ccc(C(=O)N[C@H](CO)c2cccc(Cl)c2)c(F)c1` [Example 471, 4-(3-amino-6-((1R,3R)-4,4-difluoro-3-hydroxycyclo-hexyl)pyrazin-2-yl)-N-((S)-1-(3-chlorophenyl)-2-hydroxyethyl)-2-fluorobenzamide] was tested, and the IC50 was 0.483 nM. Compound `Nc1ncc([C@@H]2CCC(F)(F)[C@@H](O)C2)nc1-c1ccc(C(=O)N[C@H](CO)c2cccc(Cl)c2)c(F)c1` [Example 472, 4-(3-amino-6-((1R,3S)-4,4-difluoro-3-hydroxycyclo-hexyl)pyrazin-2-yl)-N-((S)-1-(3-chlorophenyl)-2-hydroxyethyl)-2-fluorobenzamide] has an IC50 of 0.179 nM. Compound `Nc1ncc(C(=O)N2CCOCC2)nc1-c1ccc(C(=O)N[C@H](CO)c2cc(F)cc(Br)c2)c(F)c1` [Example 473, (S)-4-(3-amino-6-(morpholine-4-carbonyl)pyrazin-2-yl)-N-(1-(3-bromo-5-fluorophenyl)-2-hydroxyethyl)-2-fluorobenzamide] has an IC50 of 10.5 nM. Work on `Nc1ncc(C(=O)N2CCOCC2)cc1-c1ccc(C(=O)N[C@H](CO)c2cc(F)cc(Br)c2)c(F)c1` [Example 474, (S)-4-(2-amino-5-(morpholine-4-carbonyl)pyridin-3-yl)-N-(1-(3-bromo-5-fluorophenyl)-2-hydroxyethyl)-2-fluorobenzamide] yielded an IC50 of 1.56 nM. For `Nc1ncc(C(=O)N2CCC(CO)CC2)nc1-c1ccc(C(=O)N[C@H](CO)c2cc(F)cc(Br)c2)c(F)c1` [Example 475, (S)-4-(3-amino-6-(4-(hydroxymethyl)piperidine-1-carbonyl)pyrazin-2-yl)-N-(1-(3-bromo-5-fluorophenyl)-2-hydroxyethyl)-2-fluorobenzamide], the IC50 was 9.68 nM. With `Nc1ncc(C(=O)N2CC(O)C2)nc1-c1ccc(C(=O)N[C@H](CO)c2cc(F)cc(Br)c2)c(F)c1` [Example 476, (S)-4-(3-amino-6-(3-hydroxyazetidine-1-carbonyl)pyrazin-2-yl)-N-(1-(3-bromo-5-fluorophenyl)-2-hydroxyethyl)-2-fluorobenzamide] the IC50 was 2.02 nM. In the case of `Nc1ncc(C(=O)N2CCC(O)CC2)cc1-c1ccc(C(=O)N[C@H](CO)c2cc(F)cc(Br)c2)c(F)c1` [Example 477, (S)-4-(2-amino-5-(4-hydroxypiperidine-1-carbonyl)pyridin-3-yl)-N-(1-(3-bromo-5-fluorophenyl)-2-hydroxyethyl)-2-fluorobenzamide], the IC50 is reported as 8.59 nM.
